Assay results from paper PMC7171691 (Journal of Tropical Medicine, 2020).
≈ marks a conversion by molar mass, not a printed value. Entries after “also recorded” stand apart in the source; their conditions may differ. Where two headings read alike, the source gives them in different places.

How the values were obtained:
[1] = tested on: P. falciparum 3D7 strains (CQ sensitive); assay: In vitro drug sensitivity, tritiated hypoxanthine incorporation assay; assay type: cell-based, Plasmodium falciparum; conditions: P. falciparum 3D7, CQ sensitive, [3H]hypoxanthine uptake, 48 hours
Protocol: Further dilutions were prepared on the day of biological assays. All the drug solutions were stored at 4°C for later use.

[2] = tested on: P. berghei ANKA; assay: In vivo efficacy, 4-day oral treatment of infected mice; parameters: species or system Plasmodium berghei in female Swiss albino mice; conditions: for ED50: P. berghei ANKA sensitive strain in mice, four days of oral treatment; for Average parasitaemia, Day 7 / Average parasitaemia, Day 9 / Average parasitaemia, Day 11: after stopping the treatment with 10 mg/kg; for Number of mice which survived up to 11 days: 5 mice per group
Protocol: Female Swiss albino mice were collected and kept in the animal house of the Center for Biotechnology and Research Development at the Kenya Medical Research Institute (KEMRI), where the animal experiments were carried out. The animals were six weeks old, weighing 20 to 22 g, and they were kept in mice cages and were allowed to access mice pencils (Ungafeed Company Ltd) and water before experimental testing. Plasmodium berghei ANKA strains, sensitive to quinolone and artemisinin-based drugs, were obtained from the Unit of Malaria, Center for Biotechnology and Research and Development, Kenya Medical Research Institute. Parasites were maintained and cryopreserved in a freezer (−80°C). The parasite was subsequently maintained in the laboratory by serial blood passage from mouse to mouse on a weekly basis.
This consisted of in vivo evaluation of hybrid drug against P. berghei ANKA, a rodent parasite which is commonly used in antimalarial studies. Female Swiss albino donor mouse was injected intraperitoneally with 0.2 ml of inoculums of 1 × 10^7 parasitized erythrocytes, and P. berghei ANKA strain was obtained from the donor mouse. Parasitaemia was assessed after 5 days under microscope using the Giemsa staining technique. The donor mouse was sedated using carbon dioxide to collect blood via cardiac puncture in a heparinized tube using a syringe and a needle. Carcasses were pooled in a biohazard container and stored at room temperature while waiting to be incinerated. Afterward, the experimental mice were infected with inoculums of 1 × 10^7 parasitized erythrocytes using an intraperitoneal method. The mice were grouped into five groups consisting of 5 mice per group. […] Blood for making thin blood smear was collected from the tip of the mouse tail. The efficacy of the drug was measured by comparison of blood parasitaemia after the four days of therapy (i.e., on day 5 postinfection). The ones still alive at the end of the experiments were killed by using carbon dioxide gas followed by incineration.
The determination of the dose to be administered was calculated individually according to each mouse weight. In this regard, these formulas were applied: HED (mg/kg) = Animal Dose (mg/kg) ∗ [Animal km/Human km], where HED stands for human equivalent dose and km which is a conversion factor. With km (a constant) = Weight/Body surface area. For mice of 0.02 kg, with a body surface area of 0.007, km = 0.02/0.007 = 3 [15].(3) Dosage mg/kg =Drug concentration mg/ml∗Volume ml/Body weightkg.
From formula (2),(4) Volume ml of drug to be given to each mouse=Body weight kg∗Dosage mg/kg/Drug concentration mg/ml .
The parasitaemia was checked for every 24 hours from the time of infection for 4 days. Thin blood smears were prepared from each mouse tail venous blood. The smears were prepared by the Giemsa staining technique, and the parasitaemia of individual mouse had been checked using a light microscope. The following formula was used to calculate the percentage parasitaemia:(5) The Percentage of parasitaemia=Number of parasitized RBCs/field/Total number of RBCs/field ∗100.
After 4 days, the percentage (%) chemosuppression of each drug was determined using the following formula [17]:(6) Percentage chemosuppression= 100−A−B/A×100, where A is the mean parasitaemia in the negative control group and B is the parasitaemia in the test group. The dose that cured 50% of infected animals had been determined as effective dose (ED50) using a nonlinear regression logistic dose-response model.

[3] = MTT cytotoxicity assay; assay type: cell-based, African green monkey (Cercopithecus aethiops); conditions: African green monkey (Cercopithecus aethiops)
Protocol: (§1) To conduct in vitro toxicity, stock solutions of the test compound and reference drugs were prepared with sterile water. […] The test samples were prepared as a 1 mg·ml^−1 stock solution. Further dilutions were prepared on the day of biological assays. All the drug solutions were stored at 4°C for later use. Vero cells (Vero E-6) were obtained from the Center for Traditional Medicine Drugs and Research (CTMDR), KEMRI. Vero cells are kidney cells extracted from an African green monkey (Cercopithecus aethiops). […] Cells were maintained in Minimum Essential Eagle's Medium (MEM) containing 10% fetal bovine serum (FBS), PenStrep, and glutamine. Vero cells were cultured using T-75 culture flasks. The flasks were kept at 37°C in 5% CO2, and the cells were passaged every 2 to 3 days to keep the cells alive. Trypsinization was carried out to detached cells which overlap each other and counted using a hemocytometer (Neubauer).
(§2) Using a 96-microwell plate, a cell density of 20,000 vero cells were seeded and incubated for 24 hours at 37°C under 5% CO2 to allow cells to attach to the surface/base of the plate. […] The plates were incubated for 48 hours at 37°C under 5% CO2 to allow the reaction to occur. After 48 hours, 0.5 mg/ml of 3-(4, 5-dimethylthiazol-2-yl)-2,5-diphenyltetra-zolium bromide (MTT) was added for calorimetric measurement of the ability of a drug to kill the vero cell lines. The plates were incubated at 37°C for 3 hours. 100 μL of 100% DMSO was added to each well and mixed to ensure cell lysis and dissolving of the formazan crystals. Doxorubicin was used as a control drug.
(§3) The amount of formazan measured was directly proportional to the number of viable cells.

[4] = parameters: method as in PMID 23433124; conditions: cited from earlier work
[5] = tested on: acute falciparum malaria; conditions: patients, 0 to 250 mg artesunate together with a curative dose of mefloquine; cited from earlier work
[6] = parameters: method as in PMID 21189459; conditions: 20 mg/kg, oral route, mice; cited from earlier work
[7] = tested on: vero cells; conditions: cited from earlier work
[8] = Solubility observations; assay type: physicochemical
[9] = tested on: vero cells (Vero E-6); assay: MTT cytotoxicity assay; assay type: cell-based, African green monkey (Cercopithecus aethiops); conditions: vero cells
Protocol: as §1, §2, §3

[10] = Acute oral toxicity in mice; assay type: in vivo; conditions: for Number of dead mice: 3 mice per group, head says after 28 days, text 14 days, listed as sarcosine-aniline hybrid drug; for Mean average of weight after 14 days: initial weights 20 to 22 g
Protocol: In this step, acute toxicity was performed. Three dosages, such as 2000 mg·kg^−1, and 300 mg·kg^−1, and 50 mg/kg were administered orally to mice in three groups, and the fourth group which served as a control received water as a placebo. Each group consisted of 3 mice, and the weight and number of dead mice were monitored and recorded after each 4 days over an interval of 14 days. Clinical or physical signs were also subjected to be recorded during the study period. At the end of the experiment, the mice were killed by using concentrated carbon dioxide gas followed by incineration. The number of dead mice was to be recorded, and a semilog plot of log concentration against percentage (%) response was made.

[11] = Acute oral toxicity in mice; conditions: mouse, in vivo, 28 days
[12] = 10 mg/kg oral, after 4 days of treatment
[13] = Plasmodium falciparum, read-out: IC50
[14] = Plasmodium berghei, 96 h, read-out: ED50

Molecule	Percentage of chemosupression of parasitaemia [2, 12] [%]	ED50 [2]	Average parasitaemia, Day 7 [2] [%]	Average parasitaemia, Day 9 [2] [%]	Average parasitaemia, Day 11 [2] [%]	Number of mice which survived up to 11 days ([2]; dosage 0.625 mg/kg oral)	Number of mice which survived up to 11 days ([2]; dosage 1.25 mg/kg oral)	Number of mice which survived up to 11 days ([2]; dosage 2.5 mg/kg oral)	Number of mice which survived up to 11 days ([2]; dosage 5 mg/kg oral)	Number of mice which survived up to 11 days ([2]; dosage 10 mg/kg oral)	other results
3-chloro-4-(4-chlorophenoxy) aniline	68	3.61 mg/kg	6.97	9.03	11.84	1	3	3	2	4	IC50 [1]: 0.02286 ± 0.00126 µg/mL
C[C@H]1[C@H](OC(=O)CCC(=O)Nc2ccc(Oc3ccc(Cl)cc3)c(Cl)c2)O[C@@H]2O[C@@]3(C)CC[C@H]4[C@H](C)CC[C@@H]1[C@@]24OO3 [Artesunate-aniline hybrid]		3.56 mg/kg				1	3	3	2	3	
C[C@H]1[C@H](OC(=O)CCC(=O)O)O[C@@H]2O[C@@]3(C)CC[C@H]4[C@H](C)CC[C@@H]1[C@@]24OO3 [Artesunate]	100		0.00	0.2	0.67	2	3	4	3	5	IC50 [1, 13]: 0.00263 ± 0.00038 µg/mL (≈ 0.00684 µM); Parasites observed under the microscope [2, 12]: No parasites were observed; ED50 [2, 14]: 2.94 mg/kg; Number of mice which survived up to 11 days ([2]; dosage 10 mg/kg oral, listed as artesunate): all mice; CC50 at 48 h [3]: 19.7 µg/mL (≈ 51.2 µM); ED50 ([4]; intraperitoneal route): < 1 mg/kg; ED50 ([4]; oral route, artesunate with 80 mg/kg as highest dosage): 1.8 mg/kg; ED50 [5]: 1.6 mg/kg
CCN(CC)CCCC(C)Nc1ccnc2cc(Cl)ccc12 (stereo not shown) [Chloroquine]	100		0.00	0.03	0.42	3	3	4	4	5	Number of mice which survived up to 11 days ([2]; dosage 10 mg/kg oral, listed as chloroquine): all mice; Chemosupression [6]: 100%; Concentrations not revealing cytotoxicity effects [7]: ≤ 50 µg/mL; Concentrations showing major cytotoxicity [7]: ≥ 500 µg/mL
COc1cccc2c1C(=O)c1c(O)c3c(c(O)c1C2=O)C[C@@](O)(C(=O)CO)C[C@@H]3O[C@H]1C[C@H](N)[C@H](O)[C@H](C)O1 [Doxorubicin]											CC50 at 48 h [3]: 1.96 µg/mL (≈ 3.61 µM)
CNCC(=O)O [Sarcosine, N-methyl glycine]		did not show in vivo activity; also recorded: No activity				0	1	1	2	1	IC50 [1]: did not show in vitro activity; also recorded: No activity; ED50 ([2]; listed as sarcosine): not detectable; Solubility in water [8]: completely soluble
CNCC(=O)Nc1ccc(Oc2ccc(Cl)cc2)c(Cl)c1 [Sarcosine-aniline hybrid, 3-Chloro-4(4-chlorophenoxy) Methyglycylanilde]			9.74	12.98	15.61	1	1	1	2	3	IC50 [1, 13]: 0.0448 ± 0.0047 µg/mL (≈ 0.138 µM); ED50 [2, 14]: 6.49 mg/kg; CC50 at 48 h ([3]; Vero E-6 cells, vero cells, MTT, 48 hours, triplicate, read-out: Mean CC50): 50.2 µg/mL (≈ 154 µM); Mean difference of CC50 versus artesunate ([9]; sarcosine-aniline hybrid VS artesunate, in µg/mL): 30.48; Mean difference of CC50 versus chloroquine ([9]; sarcosine-aniline hybrid VS chloroquine): -7.78; Mean difference of CC50 versus doxorubicin ([9]; sarcosine-aniline hybrid VS doxorubicin, in µg/mL): 48.21; Number of dead mice ([10]; 50 mg/kg oral): No mouse died; Mean average of weight after 14 days ([10]; 50 mg/kg oral): 22.24 g; Number of dead mice ([10]; 300 mg/kg oral): No mouse died; Mean average of weight after 14 days ([10]; 300 mg/kg oral): 21.58 g; Number of dead mice ([10]; 2000 mg/kg oral): No mouse died; Mean average of weight after 14 days ([10]; 2000 mg/kg oral): 21.34 g; Therapeutic index (LD50/ED50) ([10]; LD50 >5000 mg/kg, ED50 6.49 mg/kg): greater than 770.41; LD50 at 14 days ([10]; mouse, in vivo, oral, mice, estimated from no deaths at 2000 mg/kg): > 5000 mg/kg; OECD/OCDE guideline toxicity category ([10]; oral acute toxicity, mice): category 5; Therapeutic index relative to that of artesunate ([10]; versus artesunate therapeutic index of 4 from Xie et al. [31]): 192.6 fold; Solubility in dimethyl sulfoxide (DMSO) ([8]; DMSO): soluble; Solubility in Tween 80 ([8]; Tween 80): slightly soluble; Solubility in water [8]: very low; Number of dead mice [11]: 0
